How the values were obtained:
bedstraw = assay: Test B pre/postemergence bedstraw; type: in vivo, Galium aparine
Summary of the method: (§1)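 Test chemicals in a non-phytotoxic solvent mixture with surfactant were sprayed preemergence onto planted seeds and postemergence onto plants 2 to 18 cm tall (1- to 4-leaf stage). After twelve to sixteen days in a greenhouse, injury was visually rated against untreated controls from 0 (no effect) to 10 (complete control).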

blackgrass = assay: Test B pre/postemergence blackgrass; type: in vivo, Alopecurus myosuroides
Summary of the method: as §1

surinam grass = assay: Test B pre/postemergence surinam grass; type: in vivo, Brachiaria decumbens
Summary of the method: as §1

cocklebur = assay: Test B pre/postemergence cocklebur; type: in vivo, Xanthium strumarium
Summary of the method: as §1

giant foxtail = assay: Test B pre/postemergence giant foxtail; type: in vivo, Setaria faberii
Summary of the method: as §1

morningglory = assay: Test B pre/postemergence morningglory; type: in vivo, Ipomoea hederacea
Summary of the method: as §1

pigweed = assay: Test B pre/postemergence pigweed; type: in vivo, Amaranthus retroflexus
Summary of the method: as §1

rape = assay: Test B pre/postemergence rape; type: in vivo, Brassica napus
Summary of the method: as §1

soybean = assay: Test B pre/postemergence soybean; type: in vivo, Glycine max
Summary of the method: as §1

sugar beet = assay: Test B pre/postemergence sugar beet; type: in vivo, Beta vulgaris
Summary of the method: as §1

wheat = assay: Test B pre/postemergence wheat; type: in vivo, Triticum aestivum
Summary of the method: as §1

wild oat = assay: Test B pre/postemergence wild oat; type: in vivo, Avena fatua
Summary of the method: as §1

purple nutsedge = assay: Test B pre/postemergence purple nutsedge; type: in vivo, Cyperus rotundus
Summary of the method: as §1

smallflower flatsedge = assay: Test B flood test smallflower flatsedge; type: in vivo, Cyperus difformis
Summary of the method: (§2)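 Plants were grown to the 2-leaf stage before treatment with test chemical, then held in a greenhouse for twelve to sixteen days. Injury was visually rated against untreated controls on a 0–10 scale, where 0 is no effect and 10 is complete control.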

duck salad = assay: Test B flood test duck salad; type: in vivo, Heteranthera limosa
Summary of the method: as §2

bamyardgrass = assay: Test B flood test barnyardgrass; type: in vivo, Echinochloa crus-galli
Summary of the method: as §2

[1] = Postemergence, Rate 62 g/ha, scale 0 to 10, 0 is no effect, 10 is complete control
[2] = Postemergence, Rate 250 g/ha, scale 0 to 10, 0 no effect, 10 complete control
[3] = Preemergence, Rate 62 g/ha, scale 0 to 10 (0 no effect, 10 complete control)
[4] = Preemergence, Rate 125 g/ha, scale 0 to 10 (0 no effect, 10 complete control)
[5] = Preemergence, Rate 250 g/ha, scale of 0 to 10 where 0 is no effect and 10 is complete control
[6] = Preemergence, Rate 500 g/ha, scale 0 (no effect) to 10 (complete control)
[7] = Rate 125 g/ha, Postemergence, scale 0 to 10, 0 no effect, 10 complete control
[8] = Rate 500 g/ha, Postemergence, scale 0 to 10, 0 no effect, 10 complete control
[9] = Rate 125 g/ha, Postemergence section (flood test species), scale 0 to 10, 0 no effect, 10 complete control
[10] = Rate 500 g/ha, listed under Postemergence (flood test species), scale 0 to 10, 0 no effect, 10 complete control
[11] = flood test, listed under Postemergence, Rate 250 g/ha, scale 0 to 10, 0 no effect, 10 complete control

CCN(CC)C(=O)n1oc(=O)n(Cc2cccs2)c1=O [Compound 77]
Bedstraw plant response rating (bedstraw; [1]): 0 | Bedstraw plant response rating (bedstraw; [2]): 0 | Bedstraw plant response rating (bedstraw; [3]): 0 | Plant response rating, Bedstraw (bedstraw; [4]): 0 | Plant response rating, Bedstraw (bedstraw; [5]): 0 | Bedstraw plant response rating (bedstraw; [6]): 0 | Bedstraw plant response rating (bedstraw; [7]): 0 | Bedstraw plant response rating (bedstraw; [8]): 0 | Blackgrass plant response rating (blackgrass; [1]): 0 | Blackgrass plant response rating (blackgrass; [2]): 0 | Blackgrass plant response rating (blackgrass; [3]): 0 | Plant response rating, Blackgrass (blackgrass; [4]): 0 | Plant response rating, Blackgrass (blackgrass; [5]): 0 | Blackgrass plant response rating (blackgrass; [6]): 0 | Blackgrass plant response rating (blackgrass; [7]): 0 | Blackgrass plant response rating (blackgrass; [8]): 4 | B. signalgrass plant response rating (surinam grass; [1]): 0 | B. signalgrass plant response rating (surinam grass; [2]): 0 | B. signalgrass plant response rating (surinam grass; [3]): 0 | Plant response rating, B. signalgrass (surinam grass; [4]): 0 | Plant response rating, B. signalgrass (surinam grass; [5]): 0 | B. signalgrass plant response rating (surinam grass; [6]): 0 | B. signalgrass plant response rating (surinam grass; [7]): 0 | B. signalgrass plant response rating (surinam grass; Rate 500 g/ha, Postemergence, scale of 0 to 10 where 0 is no effect and 10 is complete control): 2 | Cocklebur plant response rating (cocklebur; [1]): 0 | Cocklebur plant response rating (cocklebur; [2]): 0 | Cocklebur plant response rating (cocklebur; [3]): 0 | Plant response rating, Cocklebur (cocklebur; [4]): 0 | Plant response rating, Cocklebur (cocklebur; [5]): 0 | Cocklebur plant response rating (cocklebur; [6]): 0 | Cocklebur plant response rating (cocklebur; [7]): 0 | Cocklebur plant response rating (cocklebur; [8]): 4 | Giant foxtail plant response rating (giant foxtail; [1]): 0 | Giant foxtail plant response rating (giant foxtail; [2]): 0 | Giant foxtail plant response rating (giant foxtail; [3]): 0 | Plant response rating, Giant foxtail (giant foxtail; [4]): 0 | Plant response rating, Giant foxtail (giant foxtail; [5]): 3 | Giant foxtail plant response rating (giant foxtail; [6]): 5 | Giant foxtail plant response rating (giant foxtail; [7]): 0 | Giant foxtail plant response rating (giant foxtail; [8]): 2 | Morningglory plant response rating (morningglory; [1]): 0 | Morningglory plant response rating (morningglory; [2]): 0 | Morningglory plant response rating (morningglory; [3]): 0 | Plant response rating, Morningglory (morningglory; [4]): 0 | Plant response rating, Morningglory (morningglory; [5]): 0 | Morningglory plant response rating (morningglory; [6]): 0 | Morningglory plant response rating (morningglory; [7]): 0 | Morningglory plant response rating (morningglory; [8]): 0 | Redroot pigweed plant response rating (pigweed; [1]): 0 | Redroot pigweed plant response rating (pigweed; [2]): 0 | Redroot pigweed plant response rating (pigweed; [3]): 0 | Plant response rating, Redroot pigweed (pigweed; [4]): 0 | Plant response rating, Redroot pigweed (pigweed; [5]): 0 | Redroot pigweed plant response rating (pigweed; [6]): 0 | Redroot pigweed plant response rating (pigweed; [7]): 0 | Redroot pigweed plant response rating (pigweed; [8]): 0 | Rape plant response rating (rape; [1]): 0 | Rape plant response rating (rape; [2]): 0 | Rape plant response rating (rape; [3]): 0 | Plant response rating, Rape (rape; [4]): 0 | Plant response rating, Rape (rape; [5]): 0 | Rape plant response rating (rape; [6]): 0 | Rape plant response rating (rape; [7]): 0 | Rape plant response rating (rape; [8]): 3 | Soybean plant response rating (soybean; [1]): 0 | Soybean plant response rating (soybean; [2]): 1 | Soybean plant response rating (soybean; [3]): 0 | Plant response rating, Soybean (soybean; [4]): 0 | Plant response rating, Soybean (soybean; [5]): 0 | Soybean plant response rating (soybean; [6]): 0 | Soybean plant response rating (soybean; [7]): 0 | Soybean plant response rating (soybean; [8]): 1 | Sugarbeets plant response rating (sugar beet; [1]): 0 | Sugarbeets plant response rating (sugar beet; [2]): 0 | Sugarbeets plant response rating (sugar beet; [3]): 0 | Plant response rating, Sugarbeets (sugar beet; [4]): 0 | Plant response rating, Sugarbeets (sugar beet; [5]): 0 | Sugarbeets plant response rating (sugar beet; [6]): 0 | Sugarbeets plant response rating (sugar beet; [7]): 0 | Sugarbeets plant response rating (sugar beet; [8]): 0 | Wheat plant response rating (wheat; [1]): 0 | Wheat plant response rating (wheat; [2]): 0 | Wheat plant response rating (wheat; [3]): 0 | Plant response rating, Wheat (wheat; [4]): 0 | Plant response rating, Wheat (wheat; [5]): 0 | Wheat plant response rating (wheat; [6]): 0 | Wheat plant response rating (wheat; [7]): 0 | Wheat plant response rating (wheat; [8]): 4 | Wild oats plant response rating (wild oat; [1]): 0 | Wild oats plant response rating (wild oat; [2]): 0 | Wild oats plant response rating (wild oat; [3]): 0 | Plant response rating, Wild oats (wild oat; [4]): 0 | Plant response rating, Wild oats (wild oat; [5]): 0 | Wild oats plant response rating (wild oat; [6]): 0 | Wild oats plant response rating (wild oat; [7]): 0 | Wild oats plant response rating (wild oat; [8]): 3 | Nutsedge plant response rating (purple nutsedge; [1]): 0 | Nutsedge plant response rating (purple nutsedge; [2]): 0 | Nutsedge plant response rating (purple nutsedge; [3]): 0 | Plant response rating, Nutsedge (purple nutsedge; [4]): 2 | Plant response rating, Nutsedge (purple nutsedge; [5]): 3 | Nutsedge plant response rating (purple nutsedge; [6]): 6 | Nutsedge plant response rating (purple nutsedge; [7]): 0 | Nutsedge plant response rating (purple nutsedge; [8]): 0 | S. Flatsedge plant response rating (smallflower flatsedge; [1]): 0 | S. Flatsedge plant response rating (smallflower flatsedge; [9]): 0 | S. Flatsedge plant response rating (smallflower flatsedge; [10]): 3 | S. Flatsedge plant response rating (smallflower flatsedge; [11]): 0 | Ducksalad plant response rating (duck salad; [1]): 0 | Ducksalad plant response rating (duck salad; [9]): 0 | Ducksalad plant response rating (duck salad; [10]): 0 | Ducksalad plant response rating (duck salad; [11]): 0 | Barnyardgrass plant response rating (bamyardgrass; [1]): 0 | Barnyardgrass plant response rating (bamyardgrass; [9]): 0 | Barnyardgrass plant response rating (bamyardgrass; [10]): 0 | Barnyardgrass plant response rating (bamyardgrass; [11]): 0
